Measured values: article PMC7725785, “TRIB3 promotes MYC-associated lymphoma development through suppression of UBE3B-mediated MYC degradation” (Nature Communications, 2020)

Experiments:
TRIB3-MYC interaction = assay: SIM imaging and Co-IP of the TRIB3-MYC interaction in Raji cells; format: cell-based, human; conditions: SIM (30 min) and Co-IP (4 μM, six hours), versus PCON, result in words
Protocol: (§1) Co-IP experiments were performed as described previously. Briefly, cells were collected and lysed for 30 min on ice. Soluble lysates were incubated with the indicated antibodies at 4 °C overnight, followed by incubation with Protein A/G Plus-Agarose (Santa Cruz Biotechnology, TX, USA) at 4 °C for 2 h. Soluble lysates were incubated with the indicated Anti-Myc magnetic beads (Bimake.com, B26302), Anti-Flag Affinity Gel (Bimake.com, B23102) or Anti-HA Affinity Gel (Bimake.com, B23302) at 4 °C overnight. Immunocomplexes were separated from the beads and then boiled for 10 min. The precipitated proteins were subjected to SDS-PAGE and blotted with specific antibodies. For immunoblotting assays, proteins were extracted from cells, spleens, or lymphoma tissues using RIPA buffer (Cell Signaling Technology, MA, USA). A BCA Protein Assay Kit was used to determine protein concentrations. Protein extracts were separated by SDS-PAGE, transferred onto PVDF membranes, and subjected to immunoblot analysis. Western blot images were captured by a Tanon 5200 chemiluminescent imaging system (Tanon, Shanghai, […]). Human lymphoma and benign LN paraffin tissue microarrays were purchased from US Biomax (LM482a).
Cells (~20,000) were grown on coverslips and fixed with formalin after the indicated treatment. […]

FL^T174 PDX = assay: PDX model tumor growth and weight, FL T174; format: in vivo, human; conditions: result in words
Protocol: (§2) Four 5-week-old male NSG mice were implanted subcutaneously with 200 μl of a 1:1 mixture of Matrigel® Basement Membrane Matrix High Concentration (Corning, 354230) and minced fresh tumor fragments resected from lymphoma patients. Approximately 3–4 weeks following implantation, the first-generation mice (G1) were killed, and tumor masses were isolated. The tumor cells were tested for human CD19 (BCL) or CD3 expression (T cell lymphoma), and the remaining tumor mass was cut into 3-mm^3 sections and passaged into 4–5 NSG mice as the second generation (G2). After stable passage of the third generation (G3), the tumor mass of the fourth generation (G4) was equally cut into 3-mm^3 pieces and then passaged subcutaneously into 30–50 NSG mice (100 μl of a 1:2 mixture of Matrigel and tumor tissue) for in vivo treatment (6–8 mice per group, dependent on the experimental drug treatment). During and after treatment with the vehicle control or the indicated agent, tumor burden was evaluated by measuring the tumor volume to determine the therapeutic efficacy in the PDX models. […]
(§3) To evaluate the survival rate, these mice were monitored for 8 months (Myc^Eμ mice). […] During the indicated treatments, tumor burden was evaluated by measuring the tumor volume to determine the therapeutic efficacy in the PDX models.

[1] = system: TRIB3 with AKT, p62, COP1, and PML; assay: Co-IP of TRIB3/AKT, TRIB3/p62, TRIB3/COP1, TRIB3/PML (off-target); format: cell-based; conditions: result in words
Protocol: as §1

MYC and MAX = assay: Duolink PLA of MYC and MAX colocalization in Raji cells; format: cell-based, human; conditions: PCM4-treated Raji cells, result in words
Protocol: A total of 1 × 10^6 cells were seeded overnight in a six-well plate. The next day, cells were collected, fixed in 4% paraformaldehyde solution, permeabilized with 0.5% Triton-X100, blocked with Duolink® Blocking Solution, and probed with antibodies directed against MYC (R&D, NB600-302, 1:100), TRIB3 (Novus, H00057761-M03, 1:100), UBE3B (Invitrogen, PA5-59390, 1:100), and MAX (Cell Signaling Technology, #4739, 1:100). The cells were then treated with the Duolink In Situ Red Starter Mouse/Rabbit kit (Sigma Aldrich, DUO92101-1KT) according to the manufacturer’s instructions. Images were captured with an OLYMPUS confocal microscope.

DLBCL^T169 PDX = assay: PDX model tumor growth and weight, DLBCL T169; format: in vivo, human; conditions: result in words
Protocol: as §2, §3

[2] = system: MYC transcriptional activity; assay: E-box luciferase reporter assay of MYC transcriptional activity in Raji cells; format: cell-based, human; conditions: 24 h after transfection, versus PCON, result in words
Protocol: Cells were seeded in 12-well plates and transfected with E-box-dependent luciferase reporters (Yeasen Inc.) using VigoFect (Vigorous Biotechnology Beijing, China). pTK-Renilla was used as an internal control. Luciferase activity was measured 20–24 h after transfection using the Dual-luciferase Reporter Assay System (Promega, USA).

DLBCL^T156 PDX = assay: PDX model tumor growth and weight, DLBCL T156; format: in vivo, human; conditions: result in words
Protocol: as §2, §3

[3] = system: lymphoma and leukemia cells; assay: Cell viability (CCK-8) of lymphoma and leukemia cells with PCM4; format: cell-based, human; conditions: result in words

HLYVSPWGGKRREQLKHKLEQLR [PCM4, fused peptide generated by linking CM4 to a cell-penetrating peptide]
colocalization and interaction of TRIB3 with MYC in lymphoma cells (TRIB3-MYC interaction): inhibited the colocalization and interaction of TRIB3 with MYC | growth and weights of tumors, combination of PCM4 and DOX (FL^T174 PDX; PDX T174 (high TRIB3 and MYC expression), PCM4 5 mg/kg and DOX 2 mg/kg): further decreased the growth and weights of tumors | tumor growth of PDX (FL^T174 PDX; PDX T174, NSG mice, PCM4 5 mg/kg i.v. three times a week): inhibited the tumor growth | off-target: interactions of TRIB3 with AKT, p62, COP1, and PML [1]: did not disturb the interactions of TRIB3 with these proteins | foci of MAX-MYC colocalization (MYC and MAX): reduced foci of MAX-MYC colocalization | growth and weights of tumors, combination of PCM4 and DOX (DLBCL^T169 PDX; PDX T169 (high TRIB3 and MYC expression), PCM4 5 mg/kg and DOX 2 mg/kg): further decreased the growth and weights of tumors | tumor growth of PDX (DLBCL^T169 PDX; PDX T169, NSG mice, PCM4 5 mg/kg i.v. three times a week): inhibited the tumor growth | MYC transcriptional activity [2]: reduced MYC transcriptional activity | growth and weights of tumors, combination of PCM4 and DOX (DLBCL^T156 PDX; PDX T156 (high TRIB3 and MYC expression), PCM4 5 mg/kg and DOX 2 mg/kg): further decreased the growth and weights of tumors | tumor growth of PDX (DLBCL^T156 PDX; PDX T156, NSG mice, PCM4 5 mg/kg i.v. three times a week): inhibited the tumor growth | proliferation of lymphoma and leukemia cells [3]: inhibited the proliferation of most lymphoma and leukemia cells in a time-dependent manner
